Assay results from US20140336135A1, “NOVEL USE OF RHODODENDRIN” (Catholic University Industry Academy Cooperation Foundation, priority 2013, published 2014).

Experiments:
[1] = system: mice having psoriasis induced by imiquimod; assay: Inhibition of hyperkeratinization in imiquimod psoriasis-induced mouse model (histology, qRT-PCR); format: in vivo, mice (C57BL/6)
Description: Tissues were excised from mice having psoriasis induced by imiquimod, and then the effect of rhododendrin on the inhibition of hyperkeratinization in the tissues was examined by histological analysis and qRT (quantitative real-time)-PCR analysis.
Specifically, in order to induce psoriasis by imiquimod, the hairs on the back of 8-week-old mice (C57BL/6, Central Animal Laboratory Inc.) were removed by using hair removal cream. The back of the mice was pre-treated daily with 20 mM rhododendrin before 1 hour, and then imiquimod (3.125 mg) was applied to the back at an one-day interval for 7 days. On the last day of application, the tissues were collected.
Histological examination of the mice skin was performed in the following manner. The mouse skin tissues were fixed in PBS containing 4% paraformaldehyde for 24 hours, washed with tap water, dehydrated with ethanol, and then embedded in paraffin to make a paraffin block. The paraffin block was cut with a microtome into 4 μm-thick sections, which were then placed on a glass slide and treated with xylene to remove wax (paraffin). Then, the tissue sections were dehydrated with ethanol and stained with hematoxylin-eosin (H&E). Histological analysis was performed using a fluorescence attached microscope (Olympus, Japan).
RNA isolation and qRT (quantitative real-time)-PCR analysis were performed in the following manner. Total RNAs were isolated from the tissues using an RNeasy Mini Kit (Qiagen, Valencia, Calif., USA) according to the manufacturer's instructions, and then synthesized into cDNA using QuantiTect Reverse Transcription Kit (Qiagen) according to the manufacturer's instructions. qRT-PCR was performed using Rotorgene™6000 (Corbett life Science) with KAPA™SYBR FAST q-PCR Master Mix(2×) universal. The relative amount of mRNAs was determined by […] method using GAPDH as an internal control. PCR was performed under the following conditions: 95° C. for 5 min; 35 cycles, each consisting of 96° C. for 20 sec, 60° C. for 20 sec and 72° C. for 20 sec; and one cycle at 72° C. for 5 min.

[2] = system: TLR7 signaling; assay: Effect on TLR7 signaling pathway in keratinocytes (Western blot, immunofluorescence); format: cell-based, human
Description: Keratinocytes were treated with imiquimod, and then TLR7 signaling in the cells was examined by Western blot analysis and immune fluorescence staining. The detailed experimental methods are as follows.
Primary keratinocytes collected from the foreskin of a healthy subject were cultured. Human keratinocytes were cultured in keratinocyte serum-free medium (K-SFM) supplemented with epidermal growth factor (EGF) and bovine pituitary extract (Gibco BRL, Rockville, Md.). When the cells reached to 70% confluency, the cells were washed twice with PBS and cultured in K-SFM for 24 hours. To induce the differentiation of the keratinocytes, 1.2 mM calcium was added to the cells which were then cultured for 1, 3, 7 and 14 days, respectively.
Western blot analysis was performed in the following manner. Serum-starved keratinocytes were treated with various concentrations of rhododendrin for 1 hour, and then stimulated by treatment with imiquimod for different time periods. The cell pellets were lysed in ice-cold RIPA buffer (Roche Applied Science, Indianapolis, Ind., USA) containing protease inhibitor cocktail at 4° C. for 30 minutes. Protein samples were isolated by SDS-PAGE (sodium dodecylsulfate-polyacrylamide gel electrophoresis) and analyzed by immunoblotting. Briefly, the protein on the SDS polyacrylamide gel was transferred to a nitrocellulose membrane (Amersham, UK). […] A signal was detected using X-ray film development or Image-Analyzer System (LAS-3000, Fujifilm, Japan) in a dark room.
In addition, the expression patterns of TLR7, NF-kB (a marker of TLR7) and caveolin (a marker of psoriasis) were analyzed by immunofluorescence in the following manner.
Primary keratinocytes (5×10^5 cells/well) were pre-treated with rhododendrin for 1 hour, and then stimulated with imiquimod for 1 hour. The signal of immunostained NF-kB p65 was analyzed by the method described in Y. Kim. et. al., Free Radical Biology and Medicine; 51(11): 1985-1995, 2011. […]

[3] = system: Human keratinocyte HaCaT cells; assay: Inhibition of intracellular ROS induced by UV irradiation (H2DCF-DA); format: cell-based; conditions: 20 μM rhododendrin 1 hour, then 100 J/m^2 UV light
Description: Human keratinocyte HaCaT cells (obtained from professor N. Fusenig, Cancer Research, Germany) were placed in a 60-mm culture dish at a density of 5×10^5 cells (1×10^6 cells for a 100 mm culture dish), and then cultured in 10% FBS (fetal bovine serum)-containing DMEM (Dulbecco's modified Eagle's medium) for 24 hours.
After culture, the cells were treated with 20 μM rhododendrin for 1 hour, and then washed three times with PBS (phosphate buffered saline). To induce ROS (reactive oxygen species), the cells were irradiated with 100 J/m^2 of UV light from a UV lamp (FSX 24 T12/UVB/HO, Pansol™ USA). Immediately after UV irradiation, the cells were washed with PBS and cultured for 4 hours in 1% FBS-containing DMEM medium supplemented with […]. Then, the cells were treated with 25 μM DCFH-DA (2,7-dichlorofliuorescin diacetate) in HBSS (Hank's balanced salt solution, BioWhittaker, CAMBREX, USA) buffer for 30 minutes, and then washed three times with PBS. Next, the measurement of ROS production in the cells by H2DCF-DA staining was performed in the same manner as described in Example 3-1.

[4] = system: HaCaT cells; assay: ROS scavenging activity, ROS induced by TNF-α/IFN-γ (H2DCF-DA); format: cell-based, human
Description: HaCaT cells were seeded at a density of 3×10^5 cells/well in 6-well plates for 12 hours. Cells were washed with serum-free media, treated with 20 μm rhododendrin for 1 hour, and then stimulated with 10 ng/ml of TNF-α and 100 U/ml of […] for 3 hours. The cells were stabilized in Hanks' balanced salt solution (HBSS) for 30 minutes, stained with 10 μM 2′,7′-dichlorofluorescin diacetate (H2DCF-DA) at 37° C. for 30 minutes, and ROS signal was then analyzed with confocal microscopy with emission at 513 nm and excitation at 488 nm. Also, the fluorescence of the cells was measured with a microplate reader (Synergy, BIO TEK, US).

[5] = system: HaCaT cells; assay: Cytotoxicity of rhododendrin, MTT cell viability; format: cell-based, human; conditions: various concentrations, 24 hours
Description: HaCaT cells were purchased from CLS Cell Line Service GmbH (Eppelheim, Germany). HaCaT cells were seeded at a density of 2×10^4 cells/well in 96-well plates. After a 12 hours incubation, the cells were incubated with various concentrations of rhododendrin for 24 hours. Then, cells were incubated with 3-(4,5-dimethylthiaol-2-yl)-2,5-diphenyltetrazolium bromide (MTT) reagent for 2-4 hours at 37° C. To calculate cell viability, MTT signals were quantified with a microplate reader (BioTek, Winooski, Vt., USA) at wavelength of 540 nm.

**Q.** `C[C@H](CCc1ccc(O)cc1)O[C@@H]1O[C@H](CO)[C@@H](O)[C@H](O)[C@H]1O` [rhododendrin, Rhododendrin] was tested. Which “induction of psoriasis (visual observation of the back tissue)” value ([1]; 20 mM rhododendrin on the back daily 1 hour before imiquimod (3.125 mg), 7 days, FIGS. 6 to 8) did it give?
**A.** Its value is “significantly decreased”.

**Q.** What about the “thickness of the epidermal and dermal layers” value ([1]; 20 mM rhododendrin topical, imiquimod 7 days, H&E histology, FIGS. 7, 8) of the same compound?
**A.** The value was “a decrease in the thickness of the epidermal and dermal layers”.

**Q.** What about the “expression of TLR (mRNA, qRT-PCR) in skin tissue” value ([1]; 20 mM rhododendrin topical, imiquimod 7 days, versus control group, FIG. 9) of the same compound?
**A.** The value was “significantly lower”.

**Q.** What about the “activity of caveolin (marker of psoriasis)” value ([2]; keratinocytes, imiquimod and 20 μM rhododendrin, fluorescence staining, FIG. 14) of the same compound?
**A.** Its value is “protected”.

**Q.** And the “activity of TLR7 (down signaling)” value ([2]; primary keratinocytes pre-treated with rhododendrin 1 hour, then imiquimod, FIGS. 12 and 13)?
**A.** Its value is “inhibited”.

**Q.** What about the “activity of NF-kB (marker of TLR7)” value ([2]; primary keratinocytes pre-treated with rhododendrin 1 hour, then imiquimod, phospho-NF-kB p65 Western blot and p65 immunostaining, FIGS. 12 and 13) of the same compound?
**A.** The value was “also inhibited”.

**Q.** And the “ROS fluorescence by confocal microscopy” value ([3]; FIG. 4)?
**A.** Its value is “only very minute fluorescence spots were found”.

**Q.** And the “amount of DCF-fluorescence (microplate reader)” value ([3]; versus group not treated, FIG. 5)?
**A.** Its value is “significantly lower”.

**Q.** And the “production of DCF-fluorescence (microplate reader)” value ([4]; 20 μM rhododendrin, then TNF-α/IFN-γ, FIG. 3)?
**A.** Its value is “decreased to that in the control group not treated with TNF-α/IFN-γ”.

**Q.** What about the “ROS signal (H2DCF-DA fluorescence) by confocal microscopy” value ([4]; 20 μm rhododendrin 1 hour, then 10 ng/ml TNF-α and 100 U/ml IFN-γ 3 hours, FIG. 2) of the same compound?
**A.** Its value is “no fluorescence was detected”.

**Q.** And the “cytotoxicity (cell viability, MTT)” value [5]?
**A.** The value was “no cytotoxicity”.
